How the values were obtained:
Assay type in all cases: cell-based
[1] = system: primary AML cells; test: proliferation assay of primary AML samples after 5-azacytidine treatment; settings: for inhibition of proliferation: Syk+ cells, FIG. 7A
Protocol: (§1) To evaluate the effect of certain chemotherapeutic agents on signal transduction through Syk and/or SHP-1, experiments were performed on primary AML samples. Primary leukemia cells were treated with 5-azacytidine for 4 days under otherwise normal cell culture growth conditions. The cells were then washed twice, and a proliferation assay was performed as described above. The basal level of proliferation (untreated cells) was considered as 100% and the percent change was calculated for each condition. Error bars indicate the SEM.

[2] = system: Syk; test: Syk expression in primary AML samples after 5-azacytidine treatment
Protocol: Based on these observations, we tested a panel of 25 primary AML samples for Syk expression using standard Western blotting and an anti-Syk or anti-ZAP-70 mouse monoclonal antibody from Santa Cruz Biochem.
as §1
Syk is not only an important protein kinase, but also a tumor suppressor. In many cancer cells, Syk is silenced by hypemethylation of the DNA encoding it. This hypermethylation can lead to absence of Syk expression and, as a result, to unresponsiveness of tumor cells to various treatments. To block possible hyper-methylation and restore Syk expression in Syk-negative primary AML samples, we used 5-azacytidine. Other hypomethylating agents could work as well. The results of the experiments are depicted in FIG. 7, Panels A-D.

[3] = system: SHP-1; test: SHP-1 expression in primary AML samples after 5-azacytidine treatment; settings: 2 of 5 SHP-1-negative primary AML samples
[4] = system: primary AML cells; test: proliferative response of primary AML samples to GO; settings: for responsive samples: FIG. 3A
Protocol: More specifically, for Panel A, colony formation assays were performed as follows: HL-60 cells were treated and cultured in 0.3% agarose in triplicate for each condition in the presence of 0.01 ug/ml of antibodies. After 14 days of culture, the number of colonies was enumerated in each dish. The basal level of colony formation (>400 per dish) was considered as 100% and the percentage of stimulation was calculated for each condition. Error bars in the figure indicate the SEM. Each graph is representative of at least 3 independent experiments. For Panel B, primary leukemia cells were cultured for 48 hours in the presence of 0.01 ug/ml of anti-CD33 mAb or control mouse IgG. Each bar in the figure summarizes (median) the proliferative response of that group. The basal level of untreated cell proliferation (CPM>5500 CPM) was considered as 0%. Inhibition was calculated as the percent change for that condition. Error bars indicate the SEM.
With the knowledge of the effect of a naked anti-CD33 antibody on Syk activation and cell proliferation or death, we investigated the effect of an immunotoxin (GO; Mylotarg® (Wyeth)) on these characteristics. GO was selected based on its approval status by the FDA. Proliferation assays were performed as described above. Various concentration of GO were added at the initiation of 48 hour culture. The basal levels of cell proliferation (untreated cells) were >10000 cpm and were considered as 100%. The percentage of change was calculated for each condition for each sample. Error bars indicate the SEM.

[5] = system: HL-60 cells; test: proliferation assay of HL-60 cells transfected with Syk si-RNA or control RNA; settings: Syk si-RNA-transfected HL-60 cells versus control RNA treated or untreated cells, FIG. 4B
Protocol: To test whether there is a correlation between response of AML cells to CD33 ligation and/or GO treatment and the level of their Syk expression, “blocking” experiments were performed. In order to block Syk expression, we used Syk-si-RNA transfection. More specifically, for the results presented in FIGS. 4A and 4B, HL-60 cells were transfected with Syk si-RNA or control RNA and grown in cell culture under normal conditions for these cells. 72 hours post-transfection, cells were cultured in the presence of optimal ([…]) concentration of mAb, as disclosed above (FIG. 4A) or the indicated concentrations of Mylotarg® (Wyeth) (FIG. 4B). Proliferation assays were performed as described above. The basal level of proliferation was >10000 CPM (considered as 100%). Each point represents the percent change for that condition. Error bars indicate the SEM. Bars compared and marked with asterisk have a statistically significant difference. For FIG. 4C, HL-60 cells were transfected with Syk si-RNA or control RNA. After 72 hours of culture under typical culture conditions, cell lysates were prepared and used to generate immune precipitates with the appropriate mAb.

Nc1ncn([C@@H]2O[C@H](CO)[C@@H](O)[C@H]2O)c(=O)n1 [5-azacytidine, 5-Azacytidine]
level of inhibition of proliferation ([1]; 5-aza alone, Syk-positive or SHP-positive samples versus negative samples): significantly higher
inhibition of proliferation ([1]; 5-azacytidine 4 days combined with GO): increased inhibition of proliferation
inhibition of proliferation ([1]; 5-azacytidine 4 days combined with naked anti-CD33 antibody): increased inhibition of proliferation
effect of anti-CD33 antibodies on proliferation ([1]; Syk- cells (non-responders) treated with the hypomethylating agent, FIG. 7B): substantially increased
level of inhibition of proliferation ([1]; Syk-negative or SHP-1-negative samples, 5-aza combined with Mylotarg): comparable to positive samples
level of inhibition of proliferation ([1]; Syk-negative or SHP-1-negative samples, 5-aza combined with anti-CD33 mAb): comparable to positive samples
samples with restored Syk expression ([2]; 5 of 15 Syk-negative primary AML samples): 33%
level of Syk expression ([2]; Syk-positive samples (data not shown)): un-changed
samples with restored SHP-1 [3]: 40%

gemtuzumab ozogamicin [GO]
responsive samples ([4]; Syk-negative primary AML samples): 17%
responsive samples ([4]; Syk-positive primary AML samples): 83%
level of inhibition of proliferation ([4]; Syk-positive samples versus Syk-negative samples, p<0.003): higher than in Syk-negative samples
proliferative response ([4]; both Syk-positive and Syk-negative samples, 48 hour culture, FIG. 3B): dose-dependent inhibition
response of proliferation to treatment [5]: significantly lower response

Reference: US7977320B2, “Method of increasing efficacy of tumor cell killing using combinations of anti-neoplastic agents” (The Regents of the University of California, priority 2004, dated 2011)
